From ChEMBL document CHEMBL3991601, “The target landscape of clinical kinase drugs” (Science, 2017) come the findings set out here.

Calls of active or inactive are those of the source.

Assay [1] has as its target T1, Cysteine--tRNA ligase, cytoplasmic (Homo sapiens, UniProt P49589).
T1 sequence (P49589 whole entry): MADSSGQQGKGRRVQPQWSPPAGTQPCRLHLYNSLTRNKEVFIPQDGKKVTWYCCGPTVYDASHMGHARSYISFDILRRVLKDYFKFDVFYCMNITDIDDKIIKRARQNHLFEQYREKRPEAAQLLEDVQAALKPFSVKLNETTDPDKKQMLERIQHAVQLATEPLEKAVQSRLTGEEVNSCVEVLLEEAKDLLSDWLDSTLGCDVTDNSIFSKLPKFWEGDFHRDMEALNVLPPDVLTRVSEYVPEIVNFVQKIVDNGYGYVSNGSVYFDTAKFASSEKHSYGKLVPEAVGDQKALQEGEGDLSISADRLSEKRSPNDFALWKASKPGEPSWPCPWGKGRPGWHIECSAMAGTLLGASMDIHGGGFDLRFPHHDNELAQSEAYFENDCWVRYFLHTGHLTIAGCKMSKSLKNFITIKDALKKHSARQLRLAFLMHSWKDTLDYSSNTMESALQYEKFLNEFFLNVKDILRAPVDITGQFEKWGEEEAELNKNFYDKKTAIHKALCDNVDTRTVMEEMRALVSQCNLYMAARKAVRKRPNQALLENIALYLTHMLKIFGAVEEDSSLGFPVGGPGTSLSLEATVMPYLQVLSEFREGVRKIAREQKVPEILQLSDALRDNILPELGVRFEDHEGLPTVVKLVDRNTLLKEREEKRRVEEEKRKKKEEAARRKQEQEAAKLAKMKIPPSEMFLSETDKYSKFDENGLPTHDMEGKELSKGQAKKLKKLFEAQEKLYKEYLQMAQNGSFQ

The target of assay [2] is Epithelial discoidin domain-containing receptor 1 (Homo sapiens, UniProt Q08345).
Assay [3] addresses Serine/threonine-protein kinase N1 (Homo sapiens, UniProt Q16512).
Assay [4] concerns the target Serine/threonine-protein kinase 26 (Homo sapiens, UniProt Q9P289).
Assay [5] deals with Casein kinase I isoform gamma-1 (Homo sapiens, UniProt Q9HCP0).
For assay [6], the target named is Cyclin-dependent kinase 3 (Homo sapiens, UniProt Q00526).
For the next assay, the target named is T2, ADP/ATP translocase 3 (Homo sapiens, UniProt P12236).
T2 sequence (P12236 whole entry): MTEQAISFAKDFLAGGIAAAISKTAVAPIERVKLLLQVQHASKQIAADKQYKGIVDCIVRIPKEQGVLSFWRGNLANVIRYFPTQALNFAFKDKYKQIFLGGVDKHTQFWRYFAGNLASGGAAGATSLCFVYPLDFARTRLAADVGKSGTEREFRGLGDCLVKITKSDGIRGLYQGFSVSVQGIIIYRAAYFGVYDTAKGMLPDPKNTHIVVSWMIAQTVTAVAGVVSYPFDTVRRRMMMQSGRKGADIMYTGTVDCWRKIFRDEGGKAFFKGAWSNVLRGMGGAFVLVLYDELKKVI

Assay [7] concerns the target Serine/threonine-protein kinase N2 (Homo sapiens, UniProt Q16513).
In the next assay the target is T3, dCTP pyrophosphatase 1 (Homo sapiens, UniProt Q9H773).
T3 sequence (Q9H773 whole entry): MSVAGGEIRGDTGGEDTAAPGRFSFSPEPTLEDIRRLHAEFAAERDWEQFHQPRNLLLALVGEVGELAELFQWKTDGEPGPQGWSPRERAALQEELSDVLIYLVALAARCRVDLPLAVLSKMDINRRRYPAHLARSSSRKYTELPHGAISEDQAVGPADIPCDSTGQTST

The target of assay [8] is T4, Phenylalanine--tRNA ligase beta subunit (Homo sapiens, UniProt Q9NSD9).
T4 sequence (Q9NSD9 whole entry): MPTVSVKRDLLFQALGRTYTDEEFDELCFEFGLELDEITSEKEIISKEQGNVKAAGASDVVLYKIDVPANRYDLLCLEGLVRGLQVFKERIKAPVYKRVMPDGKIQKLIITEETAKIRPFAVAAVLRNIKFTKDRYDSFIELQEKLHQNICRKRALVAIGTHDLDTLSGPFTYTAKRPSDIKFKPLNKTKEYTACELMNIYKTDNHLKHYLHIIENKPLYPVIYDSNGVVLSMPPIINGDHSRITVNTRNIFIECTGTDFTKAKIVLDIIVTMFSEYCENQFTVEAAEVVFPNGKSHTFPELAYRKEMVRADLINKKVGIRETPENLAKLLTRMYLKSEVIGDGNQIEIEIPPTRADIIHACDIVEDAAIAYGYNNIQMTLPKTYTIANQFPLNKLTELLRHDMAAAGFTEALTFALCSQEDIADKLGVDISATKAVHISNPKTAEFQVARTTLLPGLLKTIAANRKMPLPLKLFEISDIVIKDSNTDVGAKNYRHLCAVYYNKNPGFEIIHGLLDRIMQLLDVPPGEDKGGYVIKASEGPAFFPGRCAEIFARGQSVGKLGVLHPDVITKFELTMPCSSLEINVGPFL
Further: in the data inactive means no Kd found up to 30 µM.

Chain of Serine/threonine-protein kinase N1 (Q16512 whole entry): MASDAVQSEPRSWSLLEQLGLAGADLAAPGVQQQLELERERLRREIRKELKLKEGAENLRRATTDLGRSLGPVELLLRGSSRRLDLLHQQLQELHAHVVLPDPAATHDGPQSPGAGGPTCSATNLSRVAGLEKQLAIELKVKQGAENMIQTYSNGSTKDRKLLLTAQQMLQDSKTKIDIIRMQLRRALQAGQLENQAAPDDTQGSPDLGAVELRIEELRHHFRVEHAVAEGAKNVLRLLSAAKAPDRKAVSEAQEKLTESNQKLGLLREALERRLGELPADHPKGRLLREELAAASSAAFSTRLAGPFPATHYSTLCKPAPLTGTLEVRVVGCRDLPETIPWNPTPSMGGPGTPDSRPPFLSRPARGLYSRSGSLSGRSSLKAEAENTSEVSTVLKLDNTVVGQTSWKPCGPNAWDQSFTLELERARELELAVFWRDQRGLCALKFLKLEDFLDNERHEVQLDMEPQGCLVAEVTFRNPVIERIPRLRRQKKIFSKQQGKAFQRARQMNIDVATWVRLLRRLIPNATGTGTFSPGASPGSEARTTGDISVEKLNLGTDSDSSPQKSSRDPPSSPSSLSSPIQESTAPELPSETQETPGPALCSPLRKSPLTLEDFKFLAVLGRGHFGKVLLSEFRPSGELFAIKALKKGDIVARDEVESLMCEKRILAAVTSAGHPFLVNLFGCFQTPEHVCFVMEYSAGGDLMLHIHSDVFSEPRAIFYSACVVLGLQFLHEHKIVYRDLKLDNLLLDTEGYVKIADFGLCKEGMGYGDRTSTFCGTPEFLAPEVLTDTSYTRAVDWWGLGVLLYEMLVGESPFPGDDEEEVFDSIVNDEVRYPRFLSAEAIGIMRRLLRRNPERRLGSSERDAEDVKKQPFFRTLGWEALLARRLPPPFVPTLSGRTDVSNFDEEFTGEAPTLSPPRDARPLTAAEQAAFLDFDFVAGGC
Chain of Cyclin-dependent kinase 3 (Q00526 whole entry): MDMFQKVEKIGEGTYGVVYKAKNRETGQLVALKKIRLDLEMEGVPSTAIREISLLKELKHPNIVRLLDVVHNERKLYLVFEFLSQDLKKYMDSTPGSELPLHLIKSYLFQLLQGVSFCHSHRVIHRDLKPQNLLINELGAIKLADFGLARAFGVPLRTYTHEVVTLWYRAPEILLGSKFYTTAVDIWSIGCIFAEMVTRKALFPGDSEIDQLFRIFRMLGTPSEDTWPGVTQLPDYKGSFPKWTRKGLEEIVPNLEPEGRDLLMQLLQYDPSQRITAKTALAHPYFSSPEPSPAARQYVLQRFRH
Chain of Epithelial discoidin domain-containing receptor 1 (Q08345 whole entry, the tested form may be a part): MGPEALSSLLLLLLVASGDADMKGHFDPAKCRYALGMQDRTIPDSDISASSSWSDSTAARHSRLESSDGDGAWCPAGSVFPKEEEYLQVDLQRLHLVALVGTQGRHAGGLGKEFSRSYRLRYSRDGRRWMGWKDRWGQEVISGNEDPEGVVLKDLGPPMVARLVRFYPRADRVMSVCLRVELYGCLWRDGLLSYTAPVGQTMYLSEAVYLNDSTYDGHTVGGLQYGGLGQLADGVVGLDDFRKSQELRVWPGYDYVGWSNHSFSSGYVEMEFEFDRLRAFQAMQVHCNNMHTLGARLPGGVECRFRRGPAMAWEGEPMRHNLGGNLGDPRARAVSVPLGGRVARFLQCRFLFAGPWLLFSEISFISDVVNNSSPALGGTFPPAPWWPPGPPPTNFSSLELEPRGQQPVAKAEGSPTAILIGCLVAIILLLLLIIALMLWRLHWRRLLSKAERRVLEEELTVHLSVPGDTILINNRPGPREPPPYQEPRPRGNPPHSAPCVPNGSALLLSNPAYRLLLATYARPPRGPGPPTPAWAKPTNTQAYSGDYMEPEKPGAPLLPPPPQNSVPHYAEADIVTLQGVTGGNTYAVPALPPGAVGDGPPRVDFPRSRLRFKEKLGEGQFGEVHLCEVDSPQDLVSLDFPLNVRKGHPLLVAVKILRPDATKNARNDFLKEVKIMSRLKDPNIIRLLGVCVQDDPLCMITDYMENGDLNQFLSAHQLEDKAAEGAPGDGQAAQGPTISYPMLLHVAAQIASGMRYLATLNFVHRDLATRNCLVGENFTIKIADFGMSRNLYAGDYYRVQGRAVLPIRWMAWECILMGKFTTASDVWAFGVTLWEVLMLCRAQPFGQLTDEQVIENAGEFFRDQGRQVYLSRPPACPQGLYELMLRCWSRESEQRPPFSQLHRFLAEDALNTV
Chain of Serine/threonine-protein kinase N2 (Q16513 whole entry): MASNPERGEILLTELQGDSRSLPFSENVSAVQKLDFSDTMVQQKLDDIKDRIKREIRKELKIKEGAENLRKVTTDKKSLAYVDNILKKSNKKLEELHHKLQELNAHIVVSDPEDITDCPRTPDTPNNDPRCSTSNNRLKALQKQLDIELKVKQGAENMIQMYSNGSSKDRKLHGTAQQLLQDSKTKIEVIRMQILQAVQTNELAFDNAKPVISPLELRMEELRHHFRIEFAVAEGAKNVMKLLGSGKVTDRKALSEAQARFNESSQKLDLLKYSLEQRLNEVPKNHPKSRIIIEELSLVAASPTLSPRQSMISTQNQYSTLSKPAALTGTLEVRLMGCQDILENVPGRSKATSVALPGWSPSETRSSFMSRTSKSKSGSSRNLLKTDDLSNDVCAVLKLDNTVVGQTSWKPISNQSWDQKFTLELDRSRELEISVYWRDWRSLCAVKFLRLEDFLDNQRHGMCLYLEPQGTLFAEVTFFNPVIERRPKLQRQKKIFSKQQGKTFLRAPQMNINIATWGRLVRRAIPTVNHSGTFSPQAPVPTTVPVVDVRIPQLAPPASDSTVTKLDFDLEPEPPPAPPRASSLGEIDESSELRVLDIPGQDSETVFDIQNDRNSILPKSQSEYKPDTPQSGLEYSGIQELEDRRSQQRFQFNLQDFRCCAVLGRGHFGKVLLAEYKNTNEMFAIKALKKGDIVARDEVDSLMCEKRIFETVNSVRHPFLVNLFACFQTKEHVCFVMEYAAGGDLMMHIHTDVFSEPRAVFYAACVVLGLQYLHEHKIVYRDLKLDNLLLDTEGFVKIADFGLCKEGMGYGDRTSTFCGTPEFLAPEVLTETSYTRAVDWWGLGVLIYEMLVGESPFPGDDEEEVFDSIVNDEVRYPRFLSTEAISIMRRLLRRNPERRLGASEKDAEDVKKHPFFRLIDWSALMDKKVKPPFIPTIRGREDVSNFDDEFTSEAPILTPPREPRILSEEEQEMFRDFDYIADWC
Chain of Serine/threonine-protein kinase 26 (Q9P289 whole entry, canonical isoform): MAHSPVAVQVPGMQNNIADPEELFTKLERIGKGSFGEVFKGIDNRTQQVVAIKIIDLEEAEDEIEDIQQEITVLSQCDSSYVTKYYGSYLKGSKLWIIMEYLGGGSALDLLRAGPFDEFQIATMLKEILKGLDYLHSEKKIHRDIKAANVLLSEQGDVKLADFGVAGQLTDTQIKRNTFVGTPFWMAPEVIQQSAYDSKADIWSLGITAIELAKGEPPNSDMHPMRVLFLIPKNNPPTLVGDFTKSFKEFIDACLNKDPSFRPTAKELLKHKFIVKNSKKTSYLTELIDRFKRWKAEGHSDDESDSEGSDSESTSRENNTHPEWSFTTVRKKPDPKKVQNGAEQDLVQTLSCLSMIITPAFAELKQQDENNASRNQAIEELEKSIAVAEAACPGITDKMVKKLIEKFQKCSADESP
Chain of Casein kinase I isoform gamma-1 (Q9HCP0 whole entry, canonical isoform): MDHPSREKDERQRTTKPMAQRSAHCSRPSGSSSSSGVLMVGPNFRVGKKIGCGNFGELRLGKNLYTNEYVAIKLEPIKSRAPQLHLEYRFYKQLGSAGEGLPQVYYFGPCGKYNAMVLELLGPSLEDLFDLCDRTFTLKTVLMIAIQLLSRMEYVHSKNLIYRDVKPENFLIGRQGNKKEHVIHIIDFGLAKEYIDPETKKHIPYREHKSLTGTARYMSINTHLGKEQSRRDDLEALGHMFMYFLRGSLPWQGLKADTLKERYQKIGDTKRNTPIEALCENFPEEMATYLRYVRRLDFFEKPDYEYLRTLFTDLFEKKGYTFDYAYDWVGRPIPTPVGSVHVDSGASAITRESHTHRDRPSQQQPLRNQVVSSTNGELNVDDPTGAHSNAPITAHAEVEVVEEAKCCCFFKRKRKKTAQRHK

Regarding `CNC(=O)CN1CCC(Oc2cc3c(Nc4cccc(Cl)c4F)ncnc3cc2OC)CC1` [SAPITINIB], the Kd in assay [1], in assay [2], in assay [3], in assay [4], in assay [5] and in assay [6] was > 30 µM (inactive) each time. Also, the Kd (on ADP/ATP translocase 3; in assay [7]; on dCTP pyrophosphatase 1; in assay [8]) was > 30 µM (inactive) in each case.

For the compound `Cc1cc([C@@H](C)Nc2ccccc2C(=O)O)c2nc(N3CCOCC3)cc(=O)n2c1` [AZD-6482], the Kd in assay [1], in [2], in assay [3], in assay [4], in [5] and in assay [6] was > 30 µM (inactive) throughout. For the same compound, the Kd (at ADP/ATP translocase 3; in [7]; on dCTP pyrophosphatase 1; in assay [8]) was > 30 µM (inactive) throughout.

For `CCN1CCN(Cc2ccc(-c3cc4c(N[C@H](C)c5ccccc5)ncnc4[nH]3)cc2)CC1` [AEE-788], the Kd (commonly the concentration at which binding is half-saturated) in [1] is > 30 µM (inactive); in assay [2], 5.22 µM (active); in [3], > 30 µM (inactive); in assay [4] it was > 30 µM (inactive); in assay [5], > 30 µM (inactive); in [6], > 30 µM (inactive). Besides, the Kd (on ADP/ATP translocase 3; in [7]; at dCTP pyrophosphatase 1; in assay [8]) was > 30 µM (inactive) throughout.

`CN1N=C(N)c2cn([C@@H]3O[C@H](COP(=O)(O)O)[C@@H](O)[C@H]3O)c3ncnc1c23` [TRICIRIBINE PHOSPHATE]: the Kd in assay [1], in assay [2], in assay [3], in [4], in [5] and in [6] was > 30 µM (inactive) in each case. For the same compound, the Kd (on ADP/ATP translocase 3; in assay [7]; at dCTP pyrophosphatase 1; in assay [8]) was > 30 µM (inactive) throughout.

Take `CC(=O)Nc1cccc(-n2c(=O)n(C3CC3)c(=O)c3c(Nc4ccc(I)cc4F)n(C)c(=O)c(C)c32)c1` [TRAMETINIB]: the Kd in [1], in assay [2], in [3], in [4], in assay [5] and in [6] was > 30 µM (inactive) throughout. Also, the Kd (at ADP/ATP translocase 3; in [7]; at dCTP pyrophosphatase 1; in assay [8]) was > 30 µM (inactive) throughout.
